# Laboratory results reported in US5413990A, “N-terminus modified analogs of LHRH” (Tap Pharmaceuticals Inc., priority 1993, dated 1995).
# Square brackets hold non-standard residues; d marks the D form. Peptide text beside a SMILES is read from it. * marks the point of attachment. dPhe(4-Cl) = N[C@H](Cc1ccc(Cl)cc1)C(=O)O; d2Nal = N[C@H](Cc1ccc2ccccc2c1)C(=O)O; Cyclopentanecarbonyl = O=C(C1CCCC1)*; Lys(iPr) = CC(C)NCCCC[C@H](N)C(=O)O; NMeY = CN[C@@H](Cc1ccc(O)cc1)C(=O)O; Cyclohexylacetyl = O=C(CC1CCCCC1)*; Cyclopropanecarbonyl = O=C(C1CC1)*; Hydrocinnamoyl = O=C(CCc1ccccc1)*; d3Pal = N[C@H](Cc1cccnc1)C(=O)O; Nicotinoyl = O=C(c1cccnc1)*; Methoxyacetyl = COCC(=O)*; Isobutyryl = CC(C)C(=O)*; PhAc = O=C(Cc1ccccc1)*; Propionyl = CCC(=O)*; Butyryl = CCCC(=O)*; Bz = O=C(c1ccccc1)*; X4 = N#CCC(=O)*; For = O=C*
# Target: T1, LHRH (Rattus norvegicus, UniProt P30969)
# T1 construct: evaluated in an in vitro test for LHRH antagonist potency (pA2); endogenous in cells; host or cells: pituitary cells (rat, from my own knowledge of the cited method)
# T1 sequence (P30969 1-327): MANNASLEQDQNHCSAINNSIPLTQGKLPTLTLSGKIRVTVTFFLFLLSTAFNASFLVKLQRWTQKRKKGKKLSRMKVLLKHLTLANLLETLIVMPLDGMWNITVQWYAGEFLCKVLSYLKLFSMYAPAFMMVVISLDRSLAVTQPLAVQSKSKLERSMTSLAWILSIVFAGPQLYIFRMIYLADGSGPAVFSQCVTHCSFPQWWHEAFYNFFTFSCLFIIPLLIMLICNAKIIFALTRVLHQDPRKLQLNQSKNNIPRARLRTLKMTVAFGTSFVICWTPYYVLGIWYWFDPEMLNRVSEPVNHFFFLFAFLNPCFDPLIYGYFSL
# Experiment: in vitro test for LHRH antagonist potency (pA2)
# Format: cell-based
# Settings: negative logarithm of the antagonist concentration required to shift the response curve produced by the agonist leuprolide to two-fold higher concentration
# Procedure: Representative compounds of the present invention were evaluated in an in vitro test for LHRH antagonist potency (pA2). The test employed the method detailed in F. Haviv, et al. J. Med. Chem., 32:2340-2344 (1989). The values of pA2 are the negative logarithms of the concentration of the particular antagonist test compound required to shift the response curve produced by the agonist leuprolide to two-fold higher concentration. (Leuprolide is the LHRH agonist having the structure 5-oxo-Pro^1 -His^2 -Trp^3 -Ser^4 -Tyr^5 -D-Leu^6 -Leu^7 -Arg^8 -Pro^9 -NHEt and is disclosed and claimed in U.S. Pat. No. 4,005,063.) Typically pA2 values of 9.5 or greater are indicative of good LHRH antagonist potency, with values of 10.0 or greater being preferred.
row,Compound,Kb [nM]
1,"CC(C)C[C@H](NC(=O)[C@@H](CCCCNC(=O)c1cccnc1)NC(=O)[C@H](Cc1ccc(O)cc1)N(C)C(=O)[C@H](CO)NC(=O)[C@@H](Cc1cccnc1)NC(=O)[C@@H](Cc1ccc(Cl)cc1)NC(=O)[C@@H](Cc1ccc2ccccc2c1)NC=O)C(=O)N[C@@H](CCCCNC(C)C)C(=O)N1CCC[C@H]1C(=O)N[C@H](C)C(N)=O [Example 1, N-Formyl-D2Nal-D4ClPhe-D3Pal-Ser-NMeTyr-DLys(Nicotinyl)-Leu-Lys(N-epsilon-lsopropyl)-Pro-DAlaNH2] (For-[d2Nal][dPhe(4-Cl)][d3Pal]S[NMeY][dK](Nicotinoyl)L[Lys(iPr)]P[dA]-NH2)",0.00158
2,"CCC(=O)N[C@H](Cc1ccc2ccccc2c1)C(=O)N[C@H](Cc1ccc(Cl)cc1)C(=O)N[C@H](Cc1cccnc1)C(=O)N[C@@H](CO)C(=O)N(C)[C@@H](Cc1ccc(O)cc1)C(=O)N[C@H](CCCCNC(=O)c1cccnc1)C(=O)N[C@@H](CC(C)C)C(=O)N[C@@H](CCCCNC(C)C)C(=O)N1CCC[C@H]1C(=O)N[C@H](C)C(N)=O [Example 2a, N-Propionyl-D2Nal-D4ClPhe-D3Pal-Ser-NMeTyr-DLys(N-epsilon-Nicotinyl)-Leu-Lys(N-epsilon-Isopropyl)-Pro-DAlaNH 2] (Propionyl-[d2Nal][dPhe(4-Cl)][d3Pal]S[NMeY][dK](Nicotinoyl)L[Lys(iPr)]P[dA]-NH2)",0.00501
3,"CCCC(=O)N[C@H](Cc1ccc2ccccc2c1)C(=O)N[C@H](Cc1ccc(Cl)cc1)C(=O)N[C@H](Cc1cccnc1)C(=O)N[C@@H](CO)C(=O)N(C)[C@@H](Cc1ccc(O)cc1)C(=O)N[C@H](CCCCNC(=O)c1cccnc1)C(=O)N[C@@H](CC(C)C)C(=O)N[C@@H](CCCCNC(C)C)C(=O)N1CCC[C@H]1C(=O)N[C@H](C)C(N)=O [Example 2b, N-Butyryl-D2Nal-D4ClPhe-D3Pal-Ser-NMeTyr-DLys(N-epsilon-Nicotinyl)-Leu-Lys(N-epsilon-Isopropyl)-Pro-DAlaNH 2] (Butyryl-[d2Nal][dPhe(4-Cl)][d3Pal]S[NMeY][dK](Nicotinoyl)L[Lys(iPr)]P[dA]-NH2)",0.00891
4,"CC(C)C[C@H](NC(=O)[C@@H](CCCCNC(=O)c1cccnc1)NC(=O)[C@H](Cc1ccc(O)cc1)N(C)C(=O)[C@H](CO)NC(=O)[C@@H](Cc1cccnc1)NC(=O)[C@@H](Cc1ccc(Cl)cc1)NC(=O)[C@@H](Cc1ccc2ccccc2c1)NC(=O)C(C)C)C(=O)N[C@@H](CCCCNC(C)C)C(=O)N1CCC[C@H]1C(=O)N[C@H](C)C(N)=O [Example 2c, N-Isobutyryl-D2Nal-D4ClPhe-D3Pal- Ser-NMeTyr-DLys(N-epsilon-Nicotinyl)-Leu-Lys(N-epsilon-Isopropyl)-Pro-DAlaNH2] (Isobutyryl-[d2Nal][dPhe(4-Cl)][d3Pal]S[NMeY][dK](Nicotinoyl)L[Lys(iPr)]P[dA]-NH2)",0.0178
5,"COCC(=O)N[C@H](Cc1ccc2ccccc2c1)C(=O)N[C@H](Cc1ccc(Cl)cc1)C(=O)N[C@H](Cc1cccnc1)C(=O)N[C@@H](CO)C(=O)N(C)[C@@H](Cc1ccc(O)cc1)C(=O)N[C@H](CCCCNC(=O)c1cccnc1)C(=O)N[C@@H](CC(C)C)C(=O)N[C@@H](CCCCNC(C)C)C(=O)N1CCC[C@H]1C(=O)N[C@H](C)C(N)=O [Example 2d, N-Methoxyacetyl-D2Nal-D4ClPhe-D3Pal-Ser-NMeTyr-DLys(N-epsilon-Nicotinyl)-Leu-Lys(N-epsilon-Isopropyl)-Pro-DAlaNH 2] (Methoxyacetyl-[d2Nal][dPhe(4-Cl)][d3Pal]S[NMeY][dK](Nicotinoyl)L[Lys(iPr)]P[dA]-NH2)",0.00724
6,"CC(C)C[C@H](NC(=O)[C@@H](CCCCNC(=O)c1cccnc1)NC(=O)[C@H](Cc1ccc(O)cc1)N(C)C(=O)[C@H](CO)NC(=O)[C@@H](Cc1cccnc1)NC(=O)[C@@H](Cc1ccc(Cl)cc1)NC(=O)[C@@H](Cc1ccc2ccccc2c1)NC(=O)CC#N)C(=O)N[C@@H](CCCCNC(C)C)C(=O)N1CCC[C@H]1C(=O)N[C@H](C)C(N)=O [Example 2e, N-Cyanoacetyl-D2Nal-D4ClPhe-D3Pal-Ser-NMeTyr-DLys(N-epsilon-Nicotinyl)-Leu- Lys(N-epsilon-Isopropyl)-Pro-DAlaNH2] (X4-[d2Nal][dPhe(4-Cl)][d3Pal]S[NMeY][dK](Nicotinoyl)L[Lys(iPr)]P[dA]-NH2)",0.00316
7,"CC(C)C[C@H](NC(=O)[C@@H](CCCCNC(=O)c1cccnc1)NC(=O)[C@H](Cc1ccc(O)cc1)N(C)C(=O)[C@H](CO)NC(=O)[C@@H](Cc1cccnc1)NC(=O)[C@@H](Cc1ccc(Cl)cc1)NC(=O)[C@@H](Cc1ccc2ccccc2c1)NC(=O)C1CC1)C(=O)N[C@@H](CCCCNC(C)C)C(=O)N1CCC[C@H]1C(=O)N[C@H](C)C(N)=O [Example 2f, N-Cyclopropylcarbonyl-D2Nal-D4ClPhe- D3Pal-Ser-NMeTyr-DLys(N-epsilon-Nicotinyl)-Leu-Lys(N-epsilon-Isopropyl)-Pro-DAlaNH 2] (Cyclopropanecarbonyl-[d2Nal][dPhe(4-Cl)][d3Pal]S[NMeY][dK](Nicotinoyl)L[Lys(iPr)]P[dA]-NH2)",0.00355
8,"CC(C)C[C@H](NC(=O)[C@@H](CCCCNC(=O)c1cccnc1)NC(=O)[C@H](Cc1ccc(O)cc1)N(C)C(=O)[C@H](CO)NC(=O)[C@@H](Cc1cccnc1)NC(=O)[C@@H](Cc1ccc(Cl)cc1)NC(=O)[C@@H](Cc1ccc2ccccc2c1)NC(=O)C1CCCC1)C(=O)N[C@@H](CCCCNC(C)C)C(=O)N1CCC[C@H]1C(=O)N[C@H](C)C(N)=O [Example 2g, N-Cyclopentylcarbonyl-D2Nal-D4ClPhe-D3Pal-Ser-NMeTyr-DLys(N-epsilon-Nicotinyl)-Leu-Lys(N-epsilon-lsopropyl)-Pro-DAlaNH 2] (Cyclopentanecarbonyl-[d2Nal][dPhe(4-Cl)][d3Pal]S[NMeY][dK](Nicotinoyl)L[Lys(iPr)]P[dA]-NH2)",0.0708
9,"CC(C)C[C@H](NC(=O)[C@@H](CCCCNC(=O)c1cccnc1)NC(=O)[C@H](Cc1ccc(O)cc1)N(C)C(=O)[C@H](CO)NC(=O)[C@@H](Cc1cccnc1)NC(=O)[C@@H](Cc1ccc(Cl)cc1)NC(=O)[C@@H](Cc1ccc2ccccc2c1)NC(=O)CC1CCCCC1)C(=O)N[C@@H](CCCCNC(C)C)C(=O)N1CCC[C@H]1C(=O)N[C@H](C)C(N)=O [Example 2i, N-Cyclohexylacetyl-D2Nal-D4ClPhe-D3Pal-Ser-NMeTyr-DLys(N-epsilon-Nicotinyl)-Leu-Lys(N-epsilon-Isopropyl)-Pro-DAlaNH 2] (Cyclohexylacetyl-[d2Nal][dPhe(4-Cl)][d3Pal]S[NMeY][dK](Nicotinoyl)L[Lys(iPr)]P[dA]-NH2)",1.58
10,"CC(C)C[C@H](NC(=O)[C@@H](CCCCNC(=O)c1cccnc1)NC(=O)[C@H](Cc1ccc(O)cc1)N(C)C(=O)[C@H](CO)NC(=O)[C@@H](Cc1cccnc1)NC(=O)[C@@H](Cc1ccc(Cl)cc1)NC(=O)[C@@H](Cc1ccc2ccccc2c1)NC(=O)c1ccccc1)C(=O)N[C@@H](CCCCNC(C)C)C(=O)N1CCC[C@H]1C(=O)N[C@H](C)C(N)=O [Example 2j, N-Benzoyl-D2Nal-D4ClPhe-D3Pal-Ser-NMeTyr-DLys(N-epsilon-Nicotinyl)-Leu-Lys(N-epsilon-Isopropyl)-Pro-DAlaNH2] (Bz-[d2Nal][dPhe(4-Cl)][d3Pal]S[NMeY][dK](Nicotinoyl)L[Lys(iPr)]P[dA]-NH2)",0.0501
11,"CC(C)C[C@H](NC(=O)[C@@H](CCCCNC(=O)c1cccnc1)NC(=O)[C@H](Cc1ccc(O)cc1)N(C)C(=O)[C@H](CO)NC(=O)[C@@H](Cc1cccnc1)NC(=O)[C@@H](Cc1ccc(Cl)cc1)NC(=O)[C@@H](Cc1ccc2ccccc2c1)NC(=O)Cc1ccccc1)C(=O)N[C@@H](CCCCNC(C)C)C(=O)N1CCC[C@H]1C(=O)N[C@H](C)C(N)=O [Example 2k, N-Phenylacetyl-D2Nal-D4ClPhe-D3Pal-Ser-NMeTyr-DLys(N-epsilon-Nicotinyl)-Leu-Lys(N-epsilon-Isopropyl)-Pro-DAlaNH2] (PhAc-[d2Nal][dPhe(4-Cl)][d3Pal]S[NMeY][dK](Nicotinoyl)L[Lys(iPr)]P[dA]-NH2)",0.0141
12,"CC(C)C[C@H](NC(=O)[C@@H](CCCCNC(=O)c1cccnc1)NC(=O)[C@H](Cc1ccc(O)cc1)N(C)C(=O)[C@H](CO)NC(=O)[C@@H](Cc1cccnc1)NC(=O)[C@@H](Cc1ccc(Cl)cc1)NC(=O)[C@@H](Cc1ccc2ccccc2c1)NC(=O)CCc1ccccc1)C(=O)N[C@@H](CCCCNC(C)C)C(=O)N1CCC[C@H]1C(=O)N[C@H](C)C(N)=O [Example 2l, N-3-Phenylpropionyl-D2Nal-D4ClPhe-D3Pal-Ser-NMeTyr-DLys(N-epsilon-Nicotinyl)-Leu-Lys(N-epsilon-Isopropyl)-Pro-DAlaNH 2] (Hydrocinnamoyl-[d2Nal][dPhe(4-Cl)][d3Pal]S[NMeY][dK](Nicotinoyl)L[Lys(iPr)]P[dA]-NH2)",0.0126
